What was measured:
[1] = test system: DA receptors in the brain; assay: Block of apomorphine induced hyperactivity in rats (number of animals displaying hyperactivity); assay type: in vivo, Male Sprague-Dawley rats; settings: i.p., 60 min prior to apomorphine hydrochloride 1 mg/kg s.c.; dose reducing number of animals showing hyperactivity by 50% over 60 min
Source text: There are several techniques available to study DA receptor blockade in the brain. One method is based on the ability of anti-psychotics to block the behavioural effects induced by the DA agonist apomorphine. Apomorphine produces a characteristic syndrome in rats and other species consisting of repetitive movements (stereotypies) and hyperactivity which appear to be due to activation of postsynaptic DA receptors in the brain (J Pharm. Pharmacol. 19, 627, 1967; J Neurol. Transm. 40, 97-113, 1977). The stereotypies (chewing, licking, biting) appear mainly to reflect action on DA receptors of the neostriatal system (J Phychiat. Res., 11, 1, 1974) whereas the increased locomotion (hyperactivity) mainly appears to be due to activation of DA receptors in mesolimbic structures (nucleus olfactorium, nucleus accumbens), (J Pharm. Pharmacol. 25, 1003, 1973).
Male Sprague-Dawley rats weighing 225-275 g were used. […] The compounds were injected 60 min prior to apomorphine hydrochloride (1 mg/kg) which was injected subcutaneously into the neck.
Directly after injection, the animals were placed in the cages, one in each cage. Scoring of the stereotypies were performed by two separate methods. The first scoring system was a modified version of the system introduced by Costall and Naylor (1973). The strength of the stereotypy was scored on a 0-3 scale as follows:
In the second system the number of animals displaying hyperactivity caused by apomorphine were scored. Each group consisted of 6-8 animals. Saline controls were always run simultaneously. ED50 's are in the first scoring system (0-3 scale), the doses which reduce the strength of the stereotypies by 50% over the observation period of 60 min. ED50 's of the second scoring system are the doses which reduce the number of animals showing hyperactivity by 50% over the observation period of 60 min. The ED50 's were calculated from log dose-response curves by the method of least squares from 4-6 dose levels with 6-8 animals per dose level.

[2] = test system: DA receptors in the brain; assay: Block of apomorphine induced stereotypies in rats (0-3 scale scoring); assay type: in vivo, Male Sprague-Dawley rats; settings: i.p., 60 min prior to apomorphine hydrochloride 1 mg/kg s.c.; dose reducing strength of stereotypies by 50% over 60 min
Source text: There are several techniques available to study DA receptor blockade in the brain. One method is based on the ability of anti-psychotics to block the behavioural effects induced by the DA agonist apomorphine. Apomorphine produces a characteristic syndrome in rats and other species consisting of repetitive movements (stereotypies) and hyperactivity which appear to be due to activation of postsynaptic DA receptors in the brain (J Pharm. Pharmacol. 19, 627, 1967; J Neurol. Transm. 40, 97-113, 1977). The stereotypies (chewing, licking, biting) appear mainly to reflect action on DA receptors of the neostriatal system ([…]. Res., 11, 1, 1974) whereas the increased locomotion (hyperactivity) mainly appears to be due to activation of DA receptors in mesolimbic structures (nucleus olfactorium, nucleus accumbens), (J Pharm. Pharmacol. 25, 1003, 1973). Male Sprague-Dawley rats weighing 225-275 g were used. […] The compounds were injected 60 min prior to apomorphine hydrochloride (1 mg/kg) which was injected subcutaneously into the neck. […] Furthermore, apomorphine given s.c. also produced a very consistent hyperactivity. Directly after injection, the animals were placed in the cages, one in each cage. Scoring of the stereotypies were performed by two separate methods. The first scoring system was a modified version of the system introduced by Costall and Naylor (1973). The strength of the stereotypy was scored on a 0-3 scale as follows: |______________________________________ |Score Description of stereotyped behaviour. |______________________________________ |0 No change in behaviour compared to saline controls | No sedation. |1 Discontinuous sniffing. |2 Continuous sniffing. |3 Continuous sniffing. Chewing, biting and licking. |______________________________________ In the second system the number of animals displaying hyperactivity caused by apomorphine were scored. Each group consisted of 6-8 animals. Saline controls were always run simultaneously. […] The ED50 's were calculated from log dose-response curves by the method of least squares from 4-6 dose levels with 6-8 animals per dose level.

[3] = in vivo; cited from earlier work
[4] = experimental animals; cited from earlier work

O=C1c2ccc(Br)cc2CN1C1CCN(Cc2ccc(Cl)cc2)CC1 [Example 11, 5-bromo-2-[4-N-(4-chlorobenzyl)-piperidyl]-phthalimidine]
Hyperactivity ED50 [1]: 3.4 µmol/kg
Stereotypies ED50 [2]: 11 µmol/kg

CCN1CCCC1CNC(=O)c1cc(S(N)(=O)=O)ccc1OC (stereo not shown) [Sulpiride]
Hyperactivity ED50 [1]: 45 µmol/kg
extrapyramidal side effects [3]: weak extrapyramidal side effects
catalepsy [4]: weak catalepsy

Cc1ccc(CN2CCC(N3Cc4cc(Cl)ccc4C3=O)CC2)cc1 [Example 16, 5-chloro-2-[4-N-(4-methylbenzyl)piperidyl]-phthalimidine]
Hyperactivity ED50 [1]: 0.9 µmol/kg
Stereotypies ED50 [2]: 9 µmol/kg

COc1ccc(CN2CCC(N3Cc4cc(Cl)ccc4C3=O)CC2)cc1 [Example 7, 5-chloro-2-[4-N-(4-methoxybenzyl)piperidyl]-phthalimidine]
Hyperactivity ED50 [1]: 2.2 µmol/kg
Stereotypies ED50 [2]: 9.5 µmol/kg

O=C1c2ccc(F)cc2CN1C1CCN(Cc2ccccc2)CC1 [Example 1, 2-(4-N-benzylpiperidyl)-5-fluorophthalimidine]
Hyperactivity ED50 [1]: 4.0 µmol/kg
Stereotypies ED50 [2]: 22.0 µmol/kg

Cc1ccc(CN2CCC(N3Cc4cc(Br)ccc4C3=O)CC2)cc1 [Example 14]
Hyperactivity ED50 [1]: 1.7 µmol/kg
Stereotypies ED50 [2]: 6.5 µmol/kg

O=C1c2ccc(Cl)cc2CN1C1CCN(Cc2ccccc2)CC1 [Example 3, 2-(4-N-benzylpiperidyl)-5-chloro phthalimidine]
Hyperactivity ED50 [1]: 2.0 µmol/kg
Stereotypies ED50 [2]: 16.0 µmol/kg

O=C1c2ccc(Br)cc2CN1C1CCN(Cc2ccccc2)CC1 [Example 2, 2-(4-N-benzylpiperidyl)-5-bromo phthalimidine]
Hyperactivity ED50 [1]: 14 µmol/kg
Stereotypies ED50 [2]: 17.5 µmol/kg

O=C1c2ccc(Cl)cc2CN1C1CCN(Cc2ccc(Cl)cc2)CC1 [Example 15, 5-chloro-2-[4-N-(4-chlorobenzyl)piperidyl)-phthalimidine]
Hyperactivity ED50 [1]: 3.5 µmol/kg
Stereotypies ED50 [2]: 14 µmol/kg

— patent US4289781A, “Anti-psychotic phthalimidine derivatives” (priority 1979, dated 1981)
